Results from ChEMBL document CHEMBL5252638, “Novel triphenylphosphonium amphiphilic conjugates of glycerolipid type: synthesis, cytotoxic and antibacterial activity, and targeted cancer cell delivery” (RSC Med Chem, 2023).

How the values were obtained:
Homo sapiens [1] = species: Homo sapiens; test: Selectivity index, ratio of IC50 for human WI-38 cells to IC50 for human SK-OV-3 cells
PANC-1 = test: Cytotoxicity against human PANC-1 cells assessed as number of viable cells measured after 48 hrs by MTT based colorimetric assay; assay type: functional, cell-based; conditions: PANC-1, 48 h
Homo sapiens [2] = species: Homo sapiens; test: Selectivity index, ratio of IC50 for human Chang liver cells to IC50 for human DU-145 cells
A549 = test: Cytotoxicity against human A549 cells assessed as number of viable cells measured after 48 hrs by MTT based colorimetric assay; assay type: functional, cell-based; conditions: A549, 48 h
T98G = test: Cytotoxicity against human T98G cells assessed as number of viable cells measured after 48 hrs by MTT based colorimetric assay; assay type: functional, cell-based
HepG2 = test: Cytotoxicity against human HepG2 cells assessed as number of viable cells measured after 48 hrs by MTT based colorimetric assay; assay type: functional, cell-based; conditions: HepG2, 48 h
PC-3 = test: Cytotoxicity against human PC-3 cells assessed as number of viable cells measured after 48 hrs by MTT based colorimetric assay; assay type: functional, cell-based; conditions: PC-3, 48 h
Bacillus cereus = test: Antimicrobial activity against Bacillus cereus ATCC 10702 NCTC 8035 by serial microdilution method; assay type: functional
Escherichia coli [3] = test: Bactericidal activity against Escherichia coli ATCC 25922 by serial microdilution method; assay type: functional
[4] = Cytotoxicity against human WI-38 cells assessed as number of viable cells measured after 48 hrs by MTT based colorimetric assay; assay type: toxicity, cell-based
Escherichia coli [5] = test: Antimicrobial activity against Escherichia coli ATCC 25922 by serial microdilution method; assay type: functional
[6] = Selectivity index, ratio of IC50 for human WI-38 cells to IC50 for human PC-3 cells; assay type: toxicity; conditions: WI-38 cells and PC-3 cells, read-out: Ratio IC50
Staphylococcus aureus [7] = test: Antimicrobial activity against Staphylococcus aureus ATCC 6538 P FDA 209P by serial microdilution method; assay type: functional
M-HeLa = test: Cytotoxicity against human HelaM cells assessed as number of viable cells measured after 48 hrs by MTT based colorimetric assay; assay type: functional, cell-based
Staphylococcus aureus [8] = test: Bactericidal against Staphylococcus aureus ATCC 6538 P FDA 209P by serial microdilution method; assay type: functional
HuTu80 [9] = test: Cytotoxicity against human HuTu80 cells assessed as number of viable cells measured after 48 hrs by MTT based colorimetric assay; assay type: functional, cell-based; conditions: HuTu80, 48 h
Homo sapiens [10] = species: Homo sapiens; test: Selectivity index, ratio of IC50 for human WI-38 cells to IC50 for human HelaM cells
[11] = Selectivity index, ratio of IC50 for human WI-38 cells to IC50 for human MCF7 cells; assay type: toxicity; conditions: WI-38 cells and MCF7 cells, read-out: Ratio IC50
Homo sapiens [12] = species: Homo sapiens; test: Selectivity index, ratio of IC50 for human WI-38 cells to IC50 for human HuTu80 cells
DU-145 = test: Cytotoxicity against human DU-145 cells assessed as number of viable cells measured after 48 hrs by MTT based colorimetric assay; assay type: functional, cell-based; conditions: DU-145, 48 h
Enterococcus faecalis [13] = test: Bactericidal activity against Enterococcus faecalis ATCC 29212 by serial microdilution method; assay type: functional
MCF7 = test: Cytotoxicity against human MCF7 cells assessed as number of viable cells measured after 48 hrs by MTT based colorimetric assay; assay type: functional, cell-based; conditions: MCF7, 48 h
[14] = Cytotoxicity against human Chang liver cells assessed as number of viable cells measured after 48 hrs by MTT based colorimetric assay; assay type: toxicity, cell-based
Homo sapiens [15] = species: Homo sapiens; test: Selectivity index, ratio of IC50 for human WI-38 cells to IC50 for human PANC-1 cells
SK-OV-3 = test: Cytotoxicity against human SK-OV-3 cells assessed as number of viable cells measured after 48 hrs by MTT based colorimetric assay; assay type: functional, cell-based; conditions: SK-OV-3, 48 h
HuTu80 [16] = test: Induction of cell cycle arrest in human HuTu80 cells assessed as accumulation of cell at G2/M phase at 10 uM measured after 48 hrs by propidium iodide staining based analysis (reference value: 18.7%); assay type: functional
HuTu80 [17] = test: Induction of apoptosis in human HuTu80 cells assessed as late apoptotic cells at 10 uM incubated for 48 hrs by annexin V FITC/propidium iodide staining based flow cytometry analysis (reference value: 0.00%); assay type: functional
HuTu80 [18] = test: Induction of mitochondrial membrane potential loss in human HuTu80 cells assessed as J-monomer green fluorescence intensity at 5 uM incubated for 24 hrs by JC10 staining based flow cytometry method (reference value: 5.7%); assay type: functional
Homo sapiens [19] = species: Homo sapiens; test: Selectivity index, ratio of IC50 for human Chang liver cells to IC50 for human SK-OV-3 cells
HuTu80 [20] = test: Induction of apoptosis in human HuTu80 cells assessed as viable cells at 5 uM incubated for 48 hrs by annexin V FITC/propidium iodide staining based flow cytometry analysis (reference value: 93.71%); assay type: functional; conditions: read-out: Activity
HuTu80 [21] = test: Induction of ROS production in human HuTu80 cells assessed as increase in fluorescence intensity at 5 uM measured after 48 hrs by flow cytometry based analysis (reference value: 380); assay type: functional
HuTu80 [22] = test: Induction of cell cycle arrest in human HuTu80 cells assessed as accumulation of cell at G1/G0 phase at 5 uM measured after 48 hrs by propidium iodide staining based analysis (reference value: 72%); assay type: functional
Enterococcus faecalis [23] = test: Antimicrobial activity against Enterococcus faecalis ATCC 29212 by serial microdilution method; assay type: functional
HuTu80 [24] = test: Induction of mitochondrial membrane potential loss in human HuTu80 cells assessed as J-monomer green fluorescence intensity at 10 uM incubated for 24 hrs by JC10 staining based flow cytometry method (reference value: 5.7%); assay type: functional
HuTu80 [25] = test: Induction of cell cycle arrest in human HuTu80 cells assessed as accumulation of cell at G1/G0 phase at 10 uM measured after 48 hrs by propidium iodide staining based analysis (reference value: 72%); assay type: functional
HuTu80 [26] = test: Induction of mitochondrial membrane potential loss in human HuTu80 cells assessed as J-aggregates red fluorescence intensity at 10 uM incubated for 24 hrs by JC10 staining based flow cytometry method (reference value: 94.4%); assay type: functional
HuTu80 [27] = test: Induction of cell cycle arrest in human HuTu80 cells assessed as accumulation of cell at S phase at 10 uM measured after 48 hrs by propidium iodide staining based analysis (reference value: 8.1%); assay type: functional
HuTu80 [28] = test: Induction of cell cycle arrest in human HuTu80 cells assessed as accumulation of cell at G2/M phase at 5 uM measured after 48 hrs by propidium iodide staining based analysis (reference value: 18.7%); assay type: functional
HuTu80 [29] = test: Induction of apoptosis in human HuTu80 cells assessed as early apoptotic cells at 5 uM incubated for 48 hrs by annexin V FITC/propidium iodide staining based flow cytometry analysis (reference value: 1.74%); assay type: functional
HuTu80 [30] = test: Induction of ROS production in human HuTu80 cells assessed as increase in fluorescence intensity at 10 uM measured after 48 hrs by flow cytometry based analysis (reference value: 380); assay type: functional
Homo sapiens [31] = species: Homo sapiens; test: Selectivity index, ratio of IC50 for human Chang liver cells to IC50 for human HuTu80 cells
HuTu80 [32] = test: Induction of apoptosis in human HuTu80 cells assessed as viable cells at 10 uM incubated for 48 hrs by annexin V FITC/propidium iodide staining based flow cytometry analysis (reference value: 93.71%); assay type: functional; conditions: read-out: Activity
Homo sapiens [33] = species: Homo sapiens; test: Selectivity index, ratio of IC50 for human Chang liver cells to IC50 for human HelaM cells
HuTu80 [34] = test: Induction of apoptosis in human HuTu80 cells assessed as late apoptotic cells at 5 uM incubated for 48 hrs by annexin V FITC/propidium iodide staining based flow cytometry analysis (reference value: 0.00%); assay type: functional
HuTu80 [35] = test: Induction of apoptosis in human HuTu80 cells assessed as necrotic cells at 10 uM incubated for 48 hrs by annexin V FITC/propidium iodide staining based flow cytometry analysis (reference value: 4.56%); assay type: functional
HuTu80 [36] = test: Induction of apoptosis in human HuTu80 cells assessed as early apoptotic cells at 10 uM incubated for 48 hrs by annexin V FITC/propidium iodide staining based flow cytometry analysis (reference value: 1.74%); assay type: functional
HuTu80 [37] = test: Induction of mitochondrial membrane potential loss in human HuTu80 cells assessed as J-aggregates red fluorescence intensity at 5 uM incubated for 24 hrs by JC10 staining based flow cytometry method (reference value: 94.4%); assay type: functional
Homo sapiens [38] = species: Homo sapiens; test: Selectivity index, ratio of IC50 for human Chang liver cells to IC50 for human MCF7 cells
HuTu80 [39] = test: Induction of cell cycle arrest in human HuTu80 cells assessed as accumulation of cell at S phase at 5 uM measured after 48 hrs by propidium iodide staining based analysis (reference value: 8.1%); assay type: functional
HuTu80 [40] = test: Induction of apoptosis in human HuTu80 cells assessed as necrotic cells at 5 uM incubated for 48 hrs by annexin V FITC/propidium iodide staining based flow cytometry analysis (reference value: 4.56%); assay type: functional

CCCCC/C=C\C/C=C\CCCCCCCC(=O)OC(COC(=O)CCCCCCC/C=C\CCCCCCCC)COC(=O)CCCC[P+](c1ccccc1)(c1ccccc1)c1ccccc1 (centres undefined)
Ratio IC50 (Homo sapiens [1]): 1.9
IC50 (PANC-1): 33.5 µM
Ratio IC50 (Homo sapiens [2]): 1.9
IC50 (A549): 54.4 µM
IC50 (T98G): 73.8 µM
IC50 (HepG2): 58.2 µM
IC50 (PC-3): 27.8 µM
MIC (Bacillus cereus): 7.5 µM
MBC (Escherichia coli [3]): 30 µM
IC50 at 48 h [4]: 40 µM
MIC (Escherichia coli [5]): 30 µM
selectivity ratio [6]: 1.4
MIC (Staphylococcus aureus [7]): 7.5 µM
IC50 (M-HeLa): 32.1 µM
MBC (Staphylococcus aureus [8]): 7.5 µM
IC50 (HuTu80 [9]): 3.7 µM
Ratio IC50 (Homo sapiens [10]): 1.2
selectivity ratio [11]: 1.6
Ratio IC50 (Homo sapiens [12]): 10.8
IC50 (DU-145): 19.2 µM
MBC (Enterococcus faecalis [13]): 30 µM
IC50 (MCF7): 25.4 µM
IC50 at 48 h [14]: 36 µM
Ratio IC50 (Homo sapiens [15]): 1.2
IC50 (SK-OV-3): 21 µM

CCCCC/C=C\C/C=C\CCCCCCCC(=O)OCC(O)COC(=O)CCCC[P+](c1ccccc1)(c1ccccc1)c1ccccc1.[Br-] (centres undefined)
Activity (HuTu80 [16]): 9.3%
IC50 (PANC-1): 59 µM
Activity (HuTu80 [17]): 19.59%
Ratio IC50 (Homo sapiens [2]): 1.3
IC50 (A549): 62.5 µM
IC50 (T98G): 98 µM
Activity (HuTu80 [18]): 26.1%
Ratio IC50 (Homo sapiens [19]): 1.6
viability at 5 µM (HuTu80 [20]): 72.2%
Flu intensity (HuTu80 [21]): 1000
IC50 (HepG2): 76 µM
IC50 (PC-3): 63.9 µM
MIC (Bacillus cereus): 20 µM
MBC (Escherichia coli [3]): 80 µM
Activity (HuTu80 [22]): 81%
MIC (Enterococcus faecalis [23]): 20 µM
IC50 at 48 h [4]: 56.6 µM
Activity (HuTu80 [24]): 38.1%
Activity (HuTu80 [25]): 82%
Activity (HuTu80 [26]): 61.9%
Activity (HuTu80 [27]): 5.4%
Activity (HuTu80 [28]): 11%
MIC (Escherichia coli [5]): 20 µM
Activity (HuTu80 [29]): 3.99%
MIC (Staphylococcus aureus [7]): 5 µM
IC50 (M-HeLa): 55.6 µM
Flu intensity (HuTu80 [30]): 1700
MBC (Staphylococcus aureus [8]): 5 µM
IC50 (HuTu80 [9]): 9.5 µM
Ratio IC50 (Homo sapiens [31]): 6.6
viability at 10 µM (HuTu80 [32]): 56.2%
Ratio IC50 (Homo sapiens [33]): 1.1
Activity (HuTu80 [34]): 13.1%
IC50 (DU-145): 49.1 µM
Activity (HuTu80 [35]): 18.56%
Activity (HuTu80 [36]): 5.67%
MBC (Enterococcus faecalis [13]): 80 µM
IC50 (MCF7): 37.7 µM
Activity (HuTu80 [37]): 73.9%
IC50 at 48 h [14]: 63 µM
Ratio IC50 (Homo sapiens [38]): 1.7
Activity (HuTu80 [39]): 5.7%
Activity (HuTu80 [40]): 10.7%
IC50 (SK-OV-3): 39.4 µM
